Ends that are not written are not given here.
What was measured:
CXCR7 = target: T1, CXCR7 (Mus musculus, UniProt P56485); assay: Dose-dependent chemokine receptor occupation assay; format: binding, 4T1 murine cells; details: 4T1 cells, 0.1 nM to 1 mM, 1 h
T1 construct: endogenous in cells; host or cells: 4T1 murine breast cancer cells
Procedure: (§1) To validate the specificity of the BS (CXCR4-binding sequence) to CXCR4, a dose-dependent chemokine receptors occupation assay and a chemokine receptors competitive binding assay were conducted. […] Unoccupied chemokine receptors (CXCR4, CXCR7, CXCR2, CXCR5, and CCR4) on cell surface were stained with PE anti-human CD184/CXCR4 Antibody (1:300 dilution), anti-CXCR7-PE (1:300 dilution), anti-CXCR2-PE (1:300 dilution), anti-CXCR5-PE (1:300 dilution), and PE anti-human CD194/CCR4 Antibody (1:300 dilution) at 4 °C for 1 h, prior to flow cytometry analysis. In the chemokine receptors competitive binding assay, 4T1 cells (5 × 10^5 cells) were pre-blocked with PE anti-human CD184/CXCR4 Antibody (1:300 dilution), anti-CXCR7-PE (1:300 dilution), anti-CXCR2-PE (1:300 dilution), anti-CXCR5-PE (1:300 dilution), and PE anti-human CD194/CCR4 Antibody (1:300 dilution) at 4 °C for 1 h. Subsequently, these cells were treated with P-Cy5-BS-CM1-Cy5 (5 nM Cy5 equivalence) for 1 h. Following the treatments, cells were washed three times with PBS and subjected to flow cytometry analysis.

CXCR4 = target: T2, CXCR4 (Mus musculus, UniProt P70658); assay: Dose-dependent chemokine receptor occupation assay; format: binding, 4T1 murine cells; details: 4T1 cells, 0.1 nM to 1 mM, 25 °C, 1 h; unoccupied receptor stained with PE antibody
T2 construct: endogenous in cells; host or cells: 4T1 murine breast cancer cells
T2 sequence (P70658 whole entry): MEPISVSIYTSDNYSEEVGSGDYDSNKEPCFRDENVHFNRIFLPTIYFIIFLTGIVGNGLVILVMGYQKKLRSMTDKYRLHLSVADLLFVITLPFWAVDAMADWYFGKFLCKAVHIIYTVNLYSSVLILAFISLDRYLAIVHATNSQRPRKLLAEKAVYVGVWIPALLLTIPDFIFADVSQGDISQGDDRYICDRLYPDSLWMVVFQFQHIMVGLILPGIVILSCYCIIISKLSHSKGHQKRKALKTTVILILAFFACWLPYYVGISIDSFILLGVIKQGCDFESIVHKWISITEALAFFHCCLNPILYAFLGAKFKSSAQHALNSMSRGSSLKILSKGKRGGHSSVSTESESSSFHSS
Procedure: as §1

[1] = system: orthotopic 4T1 breast tumors; assay: Tumor-infiltrating CD8+ T lymphocytes, Tregs and MDSCs (flow cytometry); format: in vivo, female BALB/c mice; details: for CD3+CD8+ T cells (%) in tumor / CD11b+Gr1+ MDSCs (%) in tumor / Tregs (%) in CD4+ T cells: Supplementary Fig. 16b
Procedure: 4T1 cells (1 × 10^6 cells) were injected into the third mammary fat pad of female BALB/c mice (6–8-week). When tumor volumes reached nearly […] on day 7 after tumor inoculation, mice were randomly divided into 8 groups (n = 8 per group). For four groups without laser irradiation (−), mice were intravenously injected with the following samples: (1) saline on day 7, 14, 21, and 28, (2) P-PS on day 7, 14, 21, and 28, (3) P-BS-PS on day 7, 14, 21, and 28, or (4) P-BS-CM1 on day 7, 14, 21, and 28, followed by P-PS-CM2 on day 8, 15, 22, and 29 (5 mg/kg BS equivalence, CM1:CM2 1:1 mol%, 2.5 mg/kg PS equivalence), respectively. For four groups with laser irradiation (+), mice were treated with the same regimens and irradiated at 650 nm laser (580 mW/cm^2, 5 min) on day 9, 16, 23 and 30. Tumor volumes and mice survivals were recorded every other day. For the investigation of immune response and lung metastasis, 4T1 tumor-bearing female BALB/c mice (6–8-week, tumor volume~100 mm^3) were randomly divided into 8 groups (n = 5 per group) and given three rounds of above treatments. On day 28, lungs and tumors were harvested. lungs were fixed with Bouin’s solution. The pulmonary metastatic nodules were counted and analyzed by hematoxylin-eosin staining. Single-cell suspensions of tumor tissues were stained with anti-CD45-PerCP/Cy5.5 (1:300 dilution) and anti-calreticulin recombinant rabbit monoclonal antibody (1:500 dilution) at 4 °C for 1 h, and then stained with goat anti-rabbit IgG H&L Alexa Fluor® 647 (1:1000 dilution, 4 °C, 45 min), followed by flow cytometry analysis. ATP and HMGB1 concentrations in the supernatant of cell suspension were measured using a luciferase-based ATP assay kit and a mouse HMGB1 ELISA kit, respectively. Single-cell suspensions of tumors were stained with FITC anti-mouse CD3 antibody (1:300 dilution), PerCP/Cyanine5.5 anti-mouse CD4 antibody (1:300 dilution), anti-CD8α-APC (1:300 dilution), and anti-Foxp3-PE (1:300 dilution) for flow cytometry analysis of T cell subtypes (CD8^+ T cells, CD4^+ effector T cells, and Foxp3^+ regulatory T cells), and stained with PE anti-mouse/human CD11b antibody (1:300 dilution) and FITC anti-mouse Ly-6G/Ly-6C (Gr-1) antibody (1:300 dilution) for flow cytometry analysis of MDSCs (CD11b^+Gr1^+). Cytotoxic T cells in tumor tissues were investigated with immunofluorescent staining of IFN-γ and flow cytometry analysis using anti-IFN-γ-PE (1:300 dilution). For CD8-depletion assay, 4T1 tumor-bearing female BALB/c mice (6–8-week, tumor volume~100 mm^3) were randomly divided into 3 groups (n = 8 per group). Mice were intravenously given four doses of P-BS-CM1 on day 7, 14, 21 and 28, combined with P-PS-CM2 on day 8, 15, 22 and 29 (5 mg/kg BS equivalence, CM1:CM2 1:1 mol%, 2.5 mg/kg PS equivalence) in the presence or absence of InvivoMab anti-mouse CD8α (100 μg/mice). Mice were irradiated at 650 nm laser (580 mW/cm^2, 5 min) on day 9, 16, 23 and 30. Tumor volumes and mice survivals were recorded every other day.

[2] = system: orthotopic 4T1 breast tumors; assay: Spontaneous lung metastasis model: tumor volume and pulmonary metastatic nodules; format: in vivo, female BALB/c mice
Procedure: For the in vivo investigation of pulmonary metastasis, 4T1 cells (1 × 10^6 cells) were injected into the third mammary fat pad of female BALB/c mice (6–8 weeks). […] Tumor volumes were recorded every other day. On day 28, lungs were harvested and fixed with Bouin’s solutions. The pulmonary metastatic nodules were counted and analyzed by hematoxylin-eosin staining.

[3] = target: T3, Cy5-labeled P-BS-CM1 (P-BS-CM1-Cy5) (cysteines embedded within BS joined to maleimides of the HPMA copolymer backbone (thiol-ene click chemistry) | N-terminal cysteine joined to a maleimide of the HPMA copolymer backbone (thiol-ene …)); assay: FRET or BRET; details: both partners purified
T3 construct: copies: 6 + 4
T3 chain 1: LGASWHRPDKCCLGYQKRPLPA
T3 chain 2: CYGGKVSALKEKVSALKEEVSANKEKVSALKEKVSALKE

Nanothread-1 (P-BS-CM1) = target: T4, Nanothread-1 (P-BS-CM1) (not fully specified; cysteines embedded within BS joined to maleimides of the HPMA copolymer backbone (thiol-ene click chemistry) | N-terminal cysteine joined to a maleimide of the HPMA copolymer …); assay: circular dichroism; P-BS-CM1, P-CM2 and their mixtures (CM1:CM2 3:1, 1:1, 1:3), total polymer 10 mg/mL, 10 mM PBS pH 7.4, 25 °C, 10 min; details: both partners purified
T4 construct: source: synthetic peptides grafted on HPMA copolymer (P-Mal), dialysis and lyophilization; copies: 6 + 4
T4 chain 1: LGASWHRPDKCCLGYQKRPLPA
T4 chain 2: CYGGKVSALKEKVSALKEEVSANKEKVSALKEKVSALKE

T1 sequence (P56485 whole entry): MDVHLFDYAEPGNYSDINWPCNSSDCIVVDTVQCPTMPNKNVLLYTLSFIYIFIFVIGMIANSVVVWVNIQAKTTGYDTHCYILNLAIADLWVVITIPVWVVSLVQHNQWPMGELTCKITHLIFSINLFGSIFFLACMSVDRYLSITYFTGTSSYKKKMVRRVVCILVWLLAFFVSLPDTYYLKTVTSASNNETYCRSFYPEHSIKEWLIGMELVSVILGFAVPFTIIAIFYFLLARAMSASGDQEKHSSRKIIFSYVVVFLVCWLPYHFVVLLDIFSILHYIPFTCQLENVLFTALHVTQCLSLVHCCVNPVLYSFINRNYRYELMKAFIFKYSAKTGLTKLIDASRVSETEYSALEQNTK

c1cc(CN2CCCNCCNCCCNCC2)ccc1CN1CCCNCCNCCCNCC1 [AMD3100, reference compound]
CXCR7 occupation (CXCR7): low affinity | CXCR4 occupation (CXCR4): occupied CXCR4 | CD3+CD8+ T cells (%) in tumor ([1]; 2 mg/kg, replicate 1 of 5): 0.1606% | CD11b+Gr1+ MDSCs (%) in tumor ([1]; 2 mg/kg, replicate 1 of 5): 22.12% | Tregs (%) in CD4+ T cells ([1]; 2 mg/kg, replicate 1 of 5): 12.05% | CD3+CD8+ T cells (%) in tumor ([1]; 2 mg/kg, replicate 2 of 5): 0.2296% | CD11b+Gr1+ MDSCs (%) in tumor ([1]; 2 mg/kg, replicate 2 of 5): 21.04% | Tregs (%) in CD4+ T cells ([1]; 2 mg/kg, replicate 2 of 5): 13.02% | CD3+CD8+ T cells (%) in tumor ([1]; 2 mg/kg, replicate 3 of 5): 0.134% | CD11b+Gr1+ MDSCs (%) in tumor ([1]; 2 mg/kg, replicate 3 of 5): 19.16% | Tregs (%) in CD4+ T cells ([1]; 2 mg/kg, replicate 3 of 5): 16.28% | CD3+CD8+ T cells (%) in tumor ([1]; 2 mg/kg, replicate 4 of 5): 0.1643% | CD11b+Gr1+ MDSCs (%) in tumor ([1]; 2 mg/kg, replicate 4 of 5): 20.68% | Tregs (%) in CD4+ T cells ([1]; 2 mg/kg, replicate 4 of 5): 11.04% | CD3+CD8+ T cells (%) in tumor ([1]; 2 mg/kg, replicate 5 of 5): 0.1515% | CD11b+Gr1+ MDSCs (%) in tumor ([1]; 2 mg/kg, replicate 5 of 5): 18.7% | Tregs (%) in CD4+ T cells ([1]; 2 mg/kg, replicate 5 of 5): 18.84% | CD3+CD8+ T cells (%) in tumor ([1]; 5 mg/kg, replicate 1 of 5): 0.2311% | CD11b+Gr1+ MDSCs (%) in tumor ([1]; 5 mg/kg, replicate 1 of 5): 16.63% | Tregs (%) in CD4+ T cells ([1]; 5 mg/kg, replicate 1 of 5): 7.21% | CD3+CD8+ T cells (%) in tumor ([1]; 5 mg/kg, replicate 2 of 5): 0.1528% | CD11b+Gr1+ MDSCs (%) in tumor ([1]; 5 mg/kg, replicate 2 of 5): 14.04% | Tregs (%) in CD4+ T cells ([1]; 5 mg/kg, replicate 2 of 5): 6.69% | CD3+CD8+ T cells (%) in tumor ([1]; 5 mg/kg, replicate 3 of 5): 0.1403% | CD11b+Gr1+ MDSCs (%) in tumor ([1]; 5 mg/kg, replicate 3 of 5): 15.32% | Tregs (%) in CD4+ T cells ([1]; 5 mg/kg, replicate 3 of 5): 12.48% | CD3+CD8+ T cells (%) in tumor ([1]; 5 mg/kg, replicate 4 of 5): 0.2195% | CD11b+Gr1+ MDSCs (%) in tumor ([1]; 5 mg/kg, replicate 4 of 5): 14.1% | Tregs (%) in CD4+ T cells ([1]; 5 mg/kg, replicate 4 of 5): 10.38% | CD3+CD8+ T cells (%) in tumor ([1]; 5 mg/kg, replicate 5 of 5): 0.1508% | CD11b+Gr1+ MDSCs (%) in tumor ([1]; 5 mg/kg, replicate 5 of 5): 16% | Tregs (%) in CD4+ T cells ([1]; 5 mg/kg, replicate 5 of 5): 8.46% | tumor-infiltrating CD8+ T cells ([1]; day 28, AMD3100 i.p. daily 2 or 5 mg/kg, nanothreads weekly i.v.): remained low | Number of metastatic nodules ([2]; 2mg/kg, replicate 1): 31 | Number of metastatic nodules ([2]; 2mg/kg, replicate 2): 32 | Number of metastatic nodules ([2]; 2mg/kg, replicate 3): 20 | Number of metastatic nodules ([2]; 2mg/kg, replicate 4): 20 | Number of metastatic nodules ([2]; 2mg/kg, replicate 5): 18 | Number of metastatic nodules ([2]; 5mg/kg, replicate 1): 12 | Number of metastatic nodules ([2]; 5mg/kg, replicate 2): 14 | Number of metastatic nodules ([2]; 5mg/kg, replicate 3): 15 | Number of metastatic nodules ([2]; 5mg/kg, replicate 4): 9 | Number of metastatic nodules ([2]; 5mg/kg, replicate 5): 12 | primary tumor growth ([2]; nanothreads weekly i.v. x3, AMD3100 i.p. daily 2 or 5 mg/kg day 7-27): dose-dependent anti-tumor activity

B1: Cy3-labeled P-CM2 (P-CM2-Cy3) (other)
peptide: C(HPMA copolymer)YGGEVSALEKEVSALEKKNSALEKEVSALEKEVSALEK
modifications: also: Cy3 label on conjugate, position not given here
notes: copies: 12
binding result [3]: binds

B2: HPMA copolymer-CM2 conjugate (P-CM2) (other)
peptide: CYGGEVSALEKEVSALEKKNSALEKEVSALEKEVSALEK
modifications: not fully specified (residue 1)
notes: source: synthetic peptide grafted on HPMA copolymer (P-Mal), dialysis and lyophilization; copies: 12
binding result (Nanothread-1 (P-BS-CM1)): binds

— article PMC10980815, “Cell surface patching via CXCR4-targeted nanothreads for cancer metastasis inhibition” (Nature Communications, 2024)
